Source: patent US20260062422A1 (Halda Therapeutics OpCo, Inc., priority 2022, published 2026)

Assays:
[1] = system: T-Rex 293 cell line SC3 cells having increased expression of androgen receptor protein due to exposure to doxycycline; experiment: Cellular growth inhibition, T-Rex 293 SC3 cells with doxycycline (androgen receptor induced), CellTiter-Glo; format: cell-based; details: T-Rex 293 SC3 cells with 10 ng/mL doxycycline (increased androgen receptor expression)
Method in brief: (§1)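 With DMSO (0.5%) vehicle as negative control, compounds treated SC3 cells for 72 h in medium containing charcoal-dextran FBS ± doxycycline. This T-Rex 293 clone expresses transfected wild-type AR on induction. Readout: CellTiter-Glo 2.0; GI50 by nonlinear regression.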

[2] = system: T-Rex 293 cell line SC3 cells lacking increased expression of androgen receptor protein; experiment: Cellular growth inhibition, T-Rex 293 SC3 cells without doxycycline, CellTiter-Glo; format: cell-based; details: T-Rex 293 SC3 cells not exposed to doxycycline, CellTiter-Glo 2.0
Method in brief: as §1

VCaP cells = experiment: Cellular growth inhibition assay for VCaP cells, CellTiter-Glo; format: cell-based, human; details: 72 hours treatment, CellTiter-Glo 2.0
Method in brief: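 GI50 values come from four-parameter curve fits of luminescence data normalized to a zero baseline. Compound, in medium with 0.5% DMSO, was added one day after plating and left for 72 h before CellTiter-Glo 2.0 addition.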

T47D cells = experiment: Cellular growth inhibition assay for T47D cells, CellTiter-Glo; format: cell-based, human; details: 72 hours treatment, CellTiter-Glo 2.0 cell viability
Method in brief: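 Luminescence from CellTiter-Glo 2.0 after 72 h of compound exposure gives the viability signal. Cells grew in insulin-supplemented (0.2 units/mL) DMEM with 10% FBS and were treated one day after seeding at 0.5% DMSO. GI50 values come from four-parameter nonlinear regression.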

| GI50 (VCaP cells; Homo sapiens, VCaP, 72 h) | GI50 (T47D cells; Homo sapiens, T47D, 72 h) | GI50 (VCaP cells) | GI50 (T47D cells) | Structure (SMILES) | GI50 ([1]; 72 h) | GI50 ([2]; 72 h) | GI50 ([1]; 72 hours) | GI50 ([2]; 72 hours) |
| --- | --- | --- | --- | --- | --- | --- | --- | --- |
| < 500 nM | < 500 nM |  |  | CCNC(=O)C[C@@H]1N=C(c2ccc(CCCOC3CCN(c4ncc(C(=O)N[C@H]5C(C)(C)[C@H](Oc6ccc(C#N)c(Cl)c6)C5(C)C)cn4)CC3)cc2)c2c(sc(C)c2C)-n2c(C)nnc21 [Compound I-87, N-[3-(3-chloro-4-cyano-phenoxy)-2,2,4,4-tetramethyl-cyclobutyl]-2-[4-[3-[4-[(9S)-9-[2-(ethylamino)-2-oxo-ethyl]-4,5,13-trimethyl-3-thia-1,8,11,12-tetrazatricyclo[8.3.0.02,6]trideca-2(6),4,7,10,12-pentaen-7-yl]phenyl]propoxy]-1-piperidyl]pyrimidine-5-carboxamide] | < 500 nM | < 500 nM |  |  |
| < 500 nM | 1500 to 3000 nM |  |  | Cc1sc2c(c1C)C(c1ccc(CCO[C@H]3CCCN(c4ncc(C(=O)N[C@H]5C(C)(C)[C@H](Oc6ccc(C#N)c(Cl)c6)C5(C)C)cn4)C3)cc1)=N[C@@H](C)c1nnc(C)n1-2 [Compound I-354] | < 500 nM | > 3000 nM |  |  |
| < 500 nM | < 500 nM |  |  | Cc1sc2c(c1C)C(c1ccc(-c3nnc(OC4CCN(c5ncc(C(=O)N[C@H]6C(C)(C)[C@H](Oc7ccc(C#N)c(Cl)c7)C6(C)C)cn5)CC4)s3)cc1)=N[C@@H](Cc1ncco1)c1nnc(C)n1-2 [Compound I-407] | < 500 nM | < 500 nM |  |  |
| < 500 nM | < 500 nM |  |  | Cc1sc2c(c1C)C(c1ccc(N3CCC(CC4CCN(c5ncc(C(=O)N[C@H]6C(C)(C)[C@H](Oc7ccc(C#N)c(Cl)c7)C6(C)C)cn5)CC4)CC3)cc1)=N[C@H](Cc1ncco1)c1nnc(C)n1-2 [Compound I-211] | < 500 nM | 500 to 1500 nM |  |  |
| > 3000 nM | > 3000 nM |  |  | Cc1sc2c(c1C)C(c1ccc(N(C)CC(=O)NCc3ncc(C(=O)N[C@H]4C(C)(C)[C@H](Oc5ccc(C#N)c(Cl)c5)C4(C)C)cn3)cc1)=N[C@@H](Cc1ncco1)c1nnc(C)n1-2 [Compound I-373] | > 3000 nM | > 3000 nM |  |  |
| > 3000 nM | > 3000 nM |  |  | Cc1sc2c(c1C)C(c1ccc([C@H]3C[C@@H]([C@@H]4CCN(c5ncc(C(=O)N[C@H]6C(C)(C)[C@H](Oc7ccc(C#N)c(Cl)c7)C6(C)C)cn5)C4)C3)cc1)=N[C@@H](Cc1ncco1)c1nnc(C)n1-2 [Compound I-413] | > 3000 nM | > 3000 nM |  |  |
| > 3000 nM | 1500 to 3000 nM |  |  | Cc1sc2c(c1C)C(c1ccc(N3CCN(C(=O)c4ncc(C(=O)N[C@H]5C(C)(C)[C@H](Oc6ccc(C#N)c(Cl)c6)C5(C)C)cn4)CC3)cc1)=N[C@@H](Cc1ncco1)c1nnc(C)n1-2 [Compound I-340] | > 3000 nM | > 3000 nM |  |  |
|  |  | < 500 nM | 500 to 1500 nM | Cc1sc2c(c1C)C(c1ccc([C@H]3C[C@H]([C@@H]4CCCN(c5ncc(C(=O)N[C@H]6C(C)(C)[C@H](Oc7ccc(C#N)c(Cl)c7)C6(C)C)cn5)C4)C3)cc1)=N[C@@H](Cc1ncco1)c1nnc(C)n1-2 [Compound I-423] |  |  | < 500 nM | > 3000 nM |
| < 500 nM | < 500 nM |  |  | Cc1sc2c(c1C)C(c1ccc([C@H]3C[C@@H](C4CCN(c5ncc(C(=O)N[C@H]6C(C)(C)[C@H](Oc7ccc(C#N)c(Cl)c7)C6(C)C)cn5)CC4)C3)cc1)=N[C@@H](Cc1ncco1)c1nnc(C)n1-2 [Compound I-398] | < 500 nM | > 3000 nM |  |  |
| < 500 nM | < 500 nM |  |  | Cc1sc2c(c1C)C(c1ccc(CCCN3CC4(C3)CN(c3ncc(C(=O)N[C@H]5C(C)(C)[C@H](Oc6ccc(C#N)c(Cl)c6)C5(C)C)cn3)C4)cc1)=N[C@@H](Cc1ncco1)c1nnc(C)n1-2 [Compound I-284] | < 500 nM | 500 to 1500 nM |  |  |
| > 3000 nM | 1500 to 3000 nM |  |  | Cc1sc2c(c1C)C(c1ccc(C[C@H]3CCC4(CCCN(c5ncc(C(=O)N[C@H]6C(C)(C)[C@H](Oc7ccc(C#N)c(Cl)c7)C6(C)C)cn5)C4)C3)cc1)=N[C@@H](Cc1ncco1)c1nnc(C)n1-2 (some centres unmarked) [Compound I-163] | < 500 nM | > 3000 nM |  |  |
|  |  | < 500 nM | < 500 nM | Cc1sc2c(c1C)C(c1ccc(C3CC3C3CC4(CCN(c5ncc(C(=O)N[C@H]6C(C)(C)[C@H](Oc7ccc(C#N)c(Cl)c7)C6(C)C)cn5)CC4)C3)cc1)=N[C@@H](Cc1ncco1)c1nnc(C)n1-2 (some centres unmarked) [Compound I-238] |  |  | < 500 nM | > 3000 nM |
| < 500 nM | 500 to 1500 nM |  |  | Cc1sc2c(c1C)C(c1ccc(CN(C)C(=O)[C@@H]3CC[C@H](c4ncc(C(=O)N[C@H]5C(C)(C)[C@H](Oc6ccc(C#N)c(Cl)c6)C5(C)C)cn4)C3)cc1)=N[C@@H](Cc1ncco1)c1nnc(C)n1-2 [Compound I-371] | < 500 nM | > 3000 nM |  |  |
| < 500 nM | 500 to 1500 nM |  |  | Cc1sc2c(c1C)C(c1ccc(N3CCN(C(=O)c4ncc(C(=O)N[C@H]5C(C)(C)[C@H](Oc6ccc(C#N)c(Cl)c6)C5(C)C)cn4)CC3)cc1)=N[C@H](Cc1ncco1)c1nnc(C)n1-2 [Compound I-341] | 500 to 1500 nM | 500 to 1500 nM |  |  |
| < 500 nM | 500 to 1500 nM |  |  | Cc1sc2c(c1C)C(c1ccc(OCCOC3CCN(c4ncc(C(=O)N[C@H]5C(C)(C)[C@H](Oc6ccc(C#N)c(Cl)c6)C5(C)C)cn4)CC3)cc1)=N[C@@H](CC(=O)NC1CC1)c1nnc(C)n1-2 [Compound I-67] | < 500 nM | < 500 nM |  |  |
| < 500 nM | < 500 nM |  |  | COCC[C@@H]1N=C(c2ccc(CC3CC4(CCN(c5ncc(C(=O)N[C@H]6C(C)(C)[C@H](Oc7ccc(C#N)c(Cl)c7)C6(C)C)cn5)CC4)C3)cc2)c2c(sc(C)c2C)-n2c(C)nnc21 [Compound I-585] | < 500 nM | > 3000 nM |  |  |
|  |  | < 500 nM | 500 to 1500 nM | Cc1sc2c(c1C)C(c1ccc(N3CCC[C@H](C(=O)NCc4ncc(C(=O)N[C@H]5C(C)(C)[C@H](Oc6ccc(C#N)c(Cl)c6)C5(C)C)cn4)C3)cc1)=N[C@@H](Cc1ncco1)c1nnc(C)n1-2 [Compound I-331] |  |  | < 500 nM | 500 to 1500 nM |
| < 500 nM | 500 to 1500 nM |  |  | Cc1sc2c(c1C)C(c1ccc(CC(=O)N3CCN(c4ncc(C(=O)N[C@H]5C(C)(C)[C@H](Oc6ccc(C#N)c(Cl)c6)C5(C)C)cn4)CC3)cc1)=N[C@@H](Cc1ncco1)c1nnc(C)n1-2 [Compound I-363] | < 500 nM | 500 to 1500 nM |  |  |
| < 500 nM | > 3000 nM |  |  | Cc1sc2c(c1C)C(c1ccc(CCC[C@H]3CCCN(c4ncc(C(=O)N[C@H]5C(C)(C)[C@H](Oc6ccc(C#N)c(Cl)c6)C5(C)C)cn4)C3)cc1)=N[C@@H](C)c1nnc(C)n1-2 [Compound I-366] | < 500 nM | > 3000 nM |  |  |
| < 500 nM | < 500 nM |  |  | Cc1sc2c(c1C)C(c1ccc(O[C@H]3C[C@@H](N(C(C)C)C4CCN(c5ncc(C(=O)N[C@H]6C(C)(C)[C@H](Oc7ccc(C#N)c(Cl)c7)C6(C)C)cn5)CC4)C3)cc1)=N[C@@H](Cc1ncco1)c1nnc(C)n1-2 [Compound I-281] | < 500 nM | 500 to 1500 nM |  |  |
| 500 to 1500 nM | 1500 to 3000 nM |  |  | Cc1sc2c(c1C)C(c1ccc(CCNC(=O)NCc3ncc(C(=O)N[C@H]4C(C)(C)[C@H](Oc5ccc(C#N)c(Cl)c5)C4(C)C)cn3)cc1)=N[C@H](Cc1ncco1)c1nnc(C)n1-2 [Compound I-330] | < 500 nM | > 3000 nM |  |  |
| 500 to 1500 nM | 500 to 1500 nM |  |  | Cc1sc2c(c1C)C(c1ccc(CCC(=O)N3CC4(C3)CN(c3ncc(C(=O)N[C@H]5C(C)(C)[C@H](Oc6ccc(C#N)c(Cl)c6)C5(C)C)cn3)C4)cc1)=N[C@@H](C)c1nnc(C)n1-2 [Compound I-603] | < 500 nM | > 3000 nM |  |  |
| > 3000 nM | > 3000 nM |  |  | Cc1sc2c(c1C)C(c1ccc(C(C)(C)N3CC4(CCCN(c5ncc(C(=O)N[C@H]6C(C)(C)[C@H](Oc7ccc(C#N)c(Cl)c7)C6(C)C)cn5)C4)C3)cc1)=N[C@@H](Cc1ncco1)c1nnc(C)n1-2 [Compound I-439] | < 500 nM | > 3000 nM |  |  |
| > 3000 nM | > 3000 nM |  |  | Cc1sc2c(c1C)C(c1ccc(C(=O)N3CCN(C(=O)c4ncc(C(=O)N[C@H]5C(C)(C)[C@H](Oc6ccc(C#N)c(Cl)c6)C5(C)C)cn4)CC3)cc1)=N[C@H](Cc1ncco1)c1nnc(C)n1-2 [Compound I-286] | 500 to 1500 nM | > 3000 nM |  |  |
| < 500 nM | < 500 nM |  |  | Cc1sc2c(c1C)C(c1ccc([C@H]3C[C@H]([C@H]4CCN(c5ncc(C(=O)N[C@H]6C(C)(C)[C@H](Oc7ccc(C#N)c(Cl)c7)C6(C)C)cn5)C4)C3)cc1)=N[C@@H](Cc1ncco1)c1nnc(C)n1-2 [Compound I-416] | < 500 nM | > 3000 nM |  |  |
| < 500 nM | < 500 nM |  |  | Cc1sc2c(c1C)C(c1ccc(C3CC(N4CCN(c5ccc(C(=O)N[C@H]6C(C)(C)[C@H](Oc7ccc(C#N)c(Cl)c7)C6(C)C)cn5)CC4)C3)cc1)=N[C@@H](C)c1nnc(C)n1-2 (some centres unmarked) [Compound I-572] | < 500 nM | < 500 nM |  |  |
